{"source": "ChEMBL document CHEMBL6087404", "about": "“Naphthoindole-2-carboxamides as a lipophilic chemotype of hetarene-anthraquinones potent against P-gp resistant tumor cells” (Eur J Med Chem, 2025)", "key": {"[1]": {"assay": "Drug uptake in verapamil-treated human K562/4 cells at 2 uM incubated for 3 to 120 hrs by flow cytometry relative to wild-type culture", "assay_type": "ADME, cell-based", "details": "k562/4, 2 µM, time 3-120 hrs; call rule not given here"}, "K562 [2]": {"system": "K562", "assay": "Effect on cell cycle distribution in human K562 cells assessed as cells with fragmented DNA at sub-G1 phase at 1 uM incubated for 72 hrs by PI staining based flow cytometry (reference value: 3 %)", "assay_type": "functional"}, "K562/4 [3]": {"system": "K562/4", "assay": "Induction of apoptosis in human K562/4 cells assessed as viable cells at 1 uM incubated for 48 hrs by Annexin V-FITC/PI staining based flow cytometry (reference value: 86 %)", "assay_type": "functional", "details": "read-out: Activity"}, "K562 [4]": {"system": "K562", "assay": "Antiproliferative activity against human K562 cells incubated for 72 hrs by MTT assay", "assay_type": "functional, cell-based", "details": "K562, 72 h"}, "[5]": {"assay": "Drug uptake in nuclear membrane of human HCT-116 cells at 3 uM incubated for 1 hr by confocal microscopy", "assay_type": "ADME, cell membranes", "details": "hct-116, 1 h"}, "K562 [6]": {"system": "K562", "assay": "Induction of apoptosis in human K562 cells assessed as early apoptotic cells at 1 uM incubated for 48 hrs by Annexin V-FITC/PI staining based flow cytometry (reference value: 0.8 %)", "assay_type": "functional"}, "K562 [7]": {"system": "K562", "assay": "Induction of apoptosis in human K562 cells assessed as late apoptotic cells at 1 uM incubated for 48 hrs by Annexin V-FITC/PI staining based flow cytometry (reference value: 2.5 %)", "assay_type": "functional"}, "[8]": {"assay": "Selectivity index, ratio of IC50 for human hFB-hTERT6 cells to IC50 for human K562 cells", "assay_type": "toxicity", "details": "hFB-hTERT6 cells and K562 cells, read-out: Ratio IC50"}, "K562/4 [9]": {"system": "K562/4", "assay": "Induction of apoptosis in human K562/4 cells assessed as late apoptotic cells at 1 uM incubated for 48 hrs by Annexin V-FITC/PI staining based flow cytometry (reference value: 2.5 %)", "assay_type": "functional"}, "K562 [10]": {"system": "K562", "assay": "Induction of apoptosis in human K562 cells assessed as late apoptotic cells at 1 uM incubated for 24 hrs by Annexin V-FITC/PI staining based flow cytometry (reference value: 2.5 %)", "assay_type": "functional"}, "K562 [11]": {"system": "K562", "assay": "Induction of apoptosis in human K562 cells assessed as necrotic cells at 1 uM incubated for 48 hrs by Annexin V-FITC/PI staining based flow cytometry (reference value: 10.8 %)", "assay_type": "functional"}, "K562/4 [12]": {"system": "K562/4", "assay": "Induction of apoptosis in human K562/4 cells assessed as late apoptotic cells at 1 uM incubated for 24 hrs by Annexin V-FITC/PI staining based flow cytometry (reference value: 2.5 %)", "assay_type": "functional"}, "K562/4 [13]": {"system": "K562/4", "assay": "Effect on cell cycle distribution in human K562/4 cells assessed as cells with fragmented DNA at sub-G1 phase at 0.75 uM incubated for 48 hrs by PI staining based flow cytometry (reference value: 4 %)", "assay_type": "functional"}, "[14]": {"assay": "Drug uptake in verapamil-treated human K562i/S9 cells at 2 uM incubated for 3 to 120 hrs by flow cytometry relative to wild-type culture", "assay_type": "ADME, cell-based", "details": "k562i/s9, 2 µM, time 3-120 hrs"}, "K562/4 [15]": {"system": "K562/4", "assay": "Effect on cell cycle distribution in human K562/4 cells assessed as cells with fragmented DNA at sub-G1 phase at 1 uM incubated for 24 hrs by PI staining based flow cytometry (reference value: 4 %)", "assay_type": "functional"}, "K562/4 [16]": {"system": "K562/4", "assay": "Induction of apoptosis in human K562/4 cells assessed as viable cells at 1 uM incubated for 48 hrs by Annexin V-FITC/PI staining based flow cytometry (reference value: 10.8 %)", "assay_type": "functional", "details": "read-out: Activity"}, "[17]": {"assay": "Drug uptake in P-gp+ human […] cells at 3 uM incubated for 10 mins by confocal microscopy", "assay_type": "ADME, cell-based", "details": "k562/4, 10 min"}, "K562 [18]": {"system": "K562", "assay": "Effect on cell cycle distribution in human K562 cells assessed as cells with fragmented DNA at sub-G1 phase at 1 uM incubated for 24 hrs by PI staining based flow cytometry (reference value: 3 %)", "assay_type": "functional"}, "[19]": {"assay": "Drug uptake in human K562/4 cells assessed as fold increase at 2 uM incubated for 3 to 120 hrs by flow cytometry relative to LCTA-2640", "assay_type": "ADME, cell-based", "details": "k562/4, 2 µM, time 3-120 hrs"}, "K562 [20]": {"system": "K562", "assay": "Effect on cell cycle distribution in human K562 cells assessed as cells with fragmented DNA at sub-G1 phase at 0.75 uM incubated for 24 hrs by PI staining based flow cytometry (reference value: 3 %)", "assay_type": "functional"}}}
{"smiles": "CS(=O)(=O)O.N[C@H]1CCN(C(=O)c2cc3c(O)c4c(c(O)c3[nH]2)C(=O)c2ccccc2C4=O)C1", "values": [{"measurement": "Drug uptake", "setting": "[1]", "value": 80, "unit": "%"}, {"measurement": "Activity", "setting": "K562 [2]", "value": 97, "unit": "%"}, {"measurement": "viability at 1 µM", "setting": "K562/4 [3]", "value": 3.4, "unit": "%"}, {"measurement": "IC50", "setting": "K562 [4]", "value": 500, "unit": "nM"}, {"measurement": "Drug uptake", "setting": "[5]", "value": "Not_active"}, {"measurement": "Activity", "setting": "K562 [6]", "value": 0.5, "unit": "%"}, {"measurement": "Activity", "setting": "K562 [7]", "value": 43.8, "unit": "%"}, {"measurement": "selectivity ratio", "setting": "[8]", "value": 8.4}, {"measurement": "Activity", "setting": "K562/4 [9]", "value": 17.5, "unit": "%"}, {"measurement": "Activity", "setting": "K562 [10]", "value": 24.5, "unit": "%"}, {"measurement": "Activity", "setting": "K562 [11]", "value": 43.7, "unit": "%"}, {"measurement": "Activity", "setting": "K562/4 [12]", "value": 20.4, "unit": "%"}, {"measurement": "Activity", "setting": "K562/4 [13]", "value": 6, "unit": "%"}, {"measurement": "Drug uptake", "setting": "[14]", "value": 50, "unit": "%"}, {"measurement": "Activity", "setting": "K562/4 [15]", "value": 30, "unit": "%"}, {"measurement": "viability at 1 µM", "setting": "K562/4 [16]", "value": 79, "unit": "%"}, {"measurement": "Drug uptake", "setting": "[17]", "value": "Active"}, {"measurement": "Activity", "setting": "K562 [18]", "value": 42, "unit": "%"}, {"measurement": "fold change (FC)", "setting": "[19]", "value": "<= 2"}, {"measurement": "Activity", "setting": "K562 [20]", "value": 21, "unit": "%"}]}
